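Interpolation was linear, between the two tested concentrations surrounding the appropriate level; five concentrations were tested over 48 hours in 96-well plates. At the TGI there is no net growth.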
Columns and labels:
Assay in all cases: growth of human tumour cells (NCI), 48 h
EKVX NSCLC = tested on: EKVX NSCLC
NCI/ADR-RES ovarian = tested on: NCI/ADR-RES ovarian
MALME-3M melanoma = tested on: MALME-3M melanoma
T-47D breast = tested on: T-47D breast
ACHN renal = tested on: ACHN renal
UACC-62 melanoma = tested on: UACC-62 melanoma
SN12C renal = tested on: SN12C renal
KM12 colon = tested on: KM12 colon
BT-549 breast = tested on: BT-549 breast
COLO 205 colon = tested on: COLO 205 colon
SNB-75 CNS = tested on: SNB-75 CNS
HCC-2998 colon = tested on: HCC-2998 colon
NCI-H23 lung = tested on: NCI-H23 lung
U251 CNS = tested on: U251 CNS
OVCAR-3 ovarian = tested on: OVCAR-3 ovarian
CAKI-1 renal = tested on: CAKI-1 renal
786-0 renal = tested on: 786-0 renal
LOX IMVI melanoma = tested on: LOX IMVI melanoma
HS 578T breast = tested on: HS 578T breast
DU-145 prostate = tested on: DU-145 prostate
MDA-MB-435 = tested on: MDA-MB-435
MOLT-4 leukemia = tested on: MOLT-4 leukemia
SF-539 CNS = tested on: SF-539 CNS
MDA-MB-231 breast = tested on: MDA-MB-231 breast
K-562 leukemia = tested on: K-562 leukemia
OVCAR-5 ovarian = tested on: OVCAR-5 ovarian
CCRF-CEM leukemia = tested on: CCRF-CEM leukemia
A498 renal = tested on: A498 renal
OVCAR-8 ovarian = tested on: OVCAR-8 ovarian
SF-295 CNS = tested on: SF-295 CNS
NCI-H460 lung = tested on: NCI-H460 lung
MCF7 breast = tested on: MCF7 breast
HCT-15 colon = tested on: HCT-15 colon
SK-MEL-2 melanoma = tested on: SK-MEL-2 melanoma
UO-31 renal = tested on: UO-31 renal
SF-268 CNS = tested on: SF-268 CNS
A549 NSCLC = tested on: A549 NSCLC
SK-OV-3 ovarian = tested on: SK-OV-3 ovarian
UACC-257 melanoma = tested on: UACC-257 melanoma
SK-MEL-28 melanoma = tested on: SK-MEL-28 melanoma
TK-10 renal = tested on: TK-10 renal
MDA-N = tested on: MDA-N
RXF 393 renal = tested on: RXF 393 renal
SNB-19 CNS = tested on: SNB-19 CNS
RPMI-8226 leukemia = tested on: RPMI-8226 leukemia
PC-3 prostate = tested on: PC-3 prostate
SW-620 colon = tested on: SW-620 colon
NCI-H226 lung = tested on: NCI-H226 lung
SK-MEL-5 melanoma = tested on: SK-MEL-5 melanoma
HOP-62 NSCLC = tested on: HOP-62 NSCLC
M14 melanoma = tested on: M14 melanoma
OVCAR-4 ovarian = tested on: OVCAR-4 ovarian
HT29 colon = tested on: HT29 colon
HCT-116 colon = tested on: HCT-116 colon
NCI-H522 lung = tested on: NCI-H522 lung
IGROV1 ovarian = tested on: IGROV1 ovarian
HOP-92 NSCLC = tested on: HOP-92 NSCLC
HL-60(TB) leukemia = tested on: HL-60(TB) leukemia
SR leukemia = tested on: SR leukemia

Compound: COc1cc2c[n+](C)c3c4ccccc4ccc3c2cc1OC
- TGI (EKVX NSCLC): > 48.2 µM
- TGI (NCI/ADR-RES ovarian): > 100 µM
- TGI (MALME-3M melanoma): 5.53 µM
- TGI (T-47D breast): 9.22 µM
- TGI (ACHN renal): > 100 µM
- TGI (UACC-62 melanoma): 18 µM
- TGI (SN12C renal): 7.95 µM
- TGI (KM12 colon): 2.65 µM
- TGI (BT-549 breast): 16.7 µM
- TGI (COLO 205 colon): 5.6 µM
- TGI (SNB-75 CNS): 18.7 µM
- TGI (HCC-2998 colon): 42.4 µM
- TGI (NCI-H23 lung): 14.1 µM
- TGI (U251 CNS): 10.3 µM
- TGI (OVCAR-3 ovarian): 34.9 µM
- TGI (CAKI-1 renal): > 100 µM
- TGI (786-0 renal): 60.4 µM
- TGI (LOX IMVI melanoma): 45 µM
- TGI (HS 578T breast): 13 µM
- TGI (DU-145 prostate): 14 µM
- TGI (MDA-MB-435): 15.6 µM
- TGI (MOLT-4 leukemia): 20.6 µM
- TGI (SF-539 CNS): 23.7 µM
- TGI (MDA-MB-231 breast): 14.8 µM
- TGI (K-562 leukemia): 21.2 µM
- TGI (OVCAR-5 ovarian): > 100 µM
- TGI (CCRF-CEM leukemia): > 100 µM
- TGI (A498 renal): > 65.2 µM
- TGI (OVCAR-8 ovarian): 16.8 µM
- TGI (SF-295 CNS): > 73.3 µM
- TGI (NCI-H460 lung): > 51.2 µM
- TGI (MCF7 breast): > 100 µM
- TGI (HCT-15 colon): > 100 µM
- TGI (SK-MEL-2 melanoma): 34.2 µM
- TGI (UO-31 renal): > 100 µM
- TGI (SF-268 CNS): 6.77 µM
- TGI (A549 NSCLC): 23.2 µM
- TGI (SK-OV-3 ovarian): 32.5 µM
- TGI (UACC-257 melanoma): 21 µM
- TGI (SK-MEL-28 melanoma): 18.1 µM
- TGI (TK-10 renal): > 100 µM
- TGI (MDA-N): > 36.7 µM
- TGI (RXF 393 renal): 32.1 µM
- TGI (SNB-19 CNS): 33.6 µM
- TGI (RPMI-8226 leukemia): 10.1 µM
- TGI (PC-3 prostate): > 43.2 µM
- TGI (SW-620 colon): > 63.6 µM
- TGI (NCI-H226 lung): 14.4 µM
- TGI (SK-MEL-5 melanoma): 12.9 µM
- TGI (HOP-62 NSCLC): 37.4 µM
- TGI (M14 melanoma): 42.6 µM
- TGI (OVCAR-4 ovarian): 28.6 µM
- TGI (HT29 colon): > 47.6 µM
- TGI (HCT-116 colon): > 67.7 µM
- TGI (NCI-H522 lung): 5.57 µM

Compound: O=C1/C(=C\c2ccccc2)c2ccccc2N1Cc1ccccc1
- TGI (EKVX NSCLC): 17.1 µM
- TGI (NCI/ADR-RES ovarian): 19.2 µM
- TGI (MALME-3M melanoma): 12.8 µM
- TGI (T-47D breast): 15.1 µM
- TGI (ACHN renal): 25.1 µM
- TGI (UACC-62 melanoma): 14.3 µM
- TGI (SN12C renal): 28.9 µM
- TGI (KM12 colon): 13.9 µM
- TGI (IGROV1 ovarian): 16.5 µM
- TGI (BT-549 breast): 14.2 µM
- TGI (COLO 205 colon): 33.3 µM
- TGI (SNB-75 CNS): 22.8 µM
- TGI (HCC-2998 colon): 16.4 µM
- TGI (NCI-H23 lung): 16.8 µM
- TGI (U251 CNS): 15.2 µM
- TGI (OVCAR-3 ovarian): 11.9 µM
- TGI (CAKI-1 renal): 13.2 µM
- TGI (786-0 renal): 23 µM
- TGI (HOP-92 NSCLC): 13.8 µM
- TGI (LOX IMVI melanoma): 17 µM
- TGI (HS 578T breast): 20.9 µM
- TGI (DU-145 prostate): 17 µM
- TGI (MDA-MB-435): 16.5 µM
- TGI (MOLT-4 leukemia): 5.4 µM
- TGI (MDA-MB-231 breast): 13.3 µM
- TGI (K-562 leukemia): > 31.3 µM
- TGI (OVCAR-5 ovarian): 15.2 µM
- TGI (CCRF-CEM leukemia): 12.6 µM
- TGI (OVCAR-8 ovarian): 19 µM
- TGI (SF-295 CNS): 16.2 µM
- TGI (NCI-H460 lung): 19 µM
- TGI (MCF7 breast): 12.3 µM
- TGI (HCT-15 colon): 14.5 µM
- TGI (SK-MEL-2 melanoma): 17.1 µM
- TGI (UO-31 renal): 15.8 µM
- TGI (HL-60(TB) leukemia): > 31.6 µM
- TGI (SF-268 CNS): 14.8 µM
- TGI (A549 NSCLC): 22.5 µM
- TGI (SK-OV-3 ovarian): 15.8 µM
- TGI (UACC-257 melanoma): 17.6 µM
- TGI (SK-MEL-28 melanoma): 15.7 µM
- TGI (TK-10 renal): 17.4 µM
- TGI (MDA-N): 13.4 µM
- TGI (RXF 393 renal): 16.1 µM
- TGI (SNB-19 CNS): 15 µM
- TGI (RPMI-8226 leukemia): 9.28 µM
- TGI (PC-3 prostate): 15.9 µM
- TGI (SW-620 colon): 15.1 µM
- TGI (NCI-H226 lung): 35.6 µM
- TGI (SK-MEL-5 melanoma): 15.8 µM
- TGI (HOP-62 NSCLC): 17.6 µM
- TGI (SR leukemia): 9.66 µM
- TGI (M14 melanoma): 23.9 µM
- TGI (OVCAR-4 ovarian): 27.5 µM
- TGI (HT29 colon): 14.4 µM
- TGI (HCT-116 colon): 12.4 µM
- TGI (NCI-H522 lung): 22 µM

Compound: O=C1c2c(Br)sc(Br)c2[C@H]2NC(=S)O[C@@H]12
- TGI (EKVX NSCLC): 39.5 µM
- TGI (NCI/ADR-RES ovarian): 45.8 µM
- TGI (MALME-3M melanoma): 29.8 µM
- TGI (T-47D breast): 69.3 µM
- TGI (ACHN renal): 31.6 µM
- TGI (UACC-62 melanoma): 29.2 µM
- TGI (SN12C renal): 32.7 µM
- TGI (KM12 colon): 38.1 µM
- TGI (IGROV1 ovarian): 32 µM
- TGI (BT-549 breast): 30.3 µM
- TGI (COLO 205 colon): 27.8 µM
- TGI (SNB-75 CNS): 34.7 µM
- TGI (HCC-2998 colon): 34.8 µM
- TGI (NCI-H23 lung): 29.9 µM
- TGI (U251 CNS): 26.7 µM
- TGI (OVCAR-3 ovarian): 20.4 µM
- TGI (CAKI-1 renal): 26.7 µM
- TGI (786-0 renal): 28.5 µM
- TGI (HOP-92 NSCLC): 33.8 µM
- TGI (LOX IMVI melanoma): 30.5 µM
- TGI (HS 578T breast): 60 µM
- TGI (DU-145 prostate): 30.7 µM
- TGI (MDA-MB-435): 29.1 µM
- TGI (MOLT-4 leukemia): 5.31 µM
- TGI (SF-539 CNS): 33.6 µM
- TGI (MDA-MB-231 breast): 32.2 µM
- TGI (K-562 leukemia): 20.7 µM
- TGI (OVCAR-5 ovarian): 35.2 µM
- TGI (A498 renal): 47.2 µM
- TGI (OVCAR-8 ovarian): 24.5 µM
- TGI (SF-295 CNS): 45.5 µM
- TGI (NCI-H460 lung): 38.3 µM
- TGI (MCF7 breast): 31.8 µM
- TGI (HCT-15 colon): 16.6 µM
- TGI (SK-MEL-2 melanoma): 33.4 µM
- TGI (UO-31 renal): 29.8 µM
- TGI (SF-268 CNS): 30.2 µM
- TGI (A549 NSCLC): 46.8 µM
- TGI (SK-OV-3 ovarian): 33.3 µM
- TGI (UACC-257 melanoma): 31.3 µM
- TGI (SK-MEL-28 melanoma): 29.6 µM
- TGI (TK-10 renal): 57.9 µM
- TGI (MDA-N): 30.6 µM
- TGI (RXF 393 renal): 27.9 µM
- TGI (SNB-19 CNS): 50.8 µM
- TGI (RPMI-8226 leukemia): 45.5 µM
- TGI (PC-3 prostate): 27.7 µM
- TGI (SW-620 colon): 11.3 µM
- TGI (NCI-H226 lung): 42.9 µM
- TGI (SK-MEL-5 melanoma): 29.7 µM
- TGI (HOP-62 NSCLC): 34.9 µM
- TGI (SR leukemia): 15.3 µM
- TGI (M14 melanoma): 30.5 µM
- TGI (OVCAR-4 ovarian): 31.9 µM
- TGI (HT29 colon): 33.5 µM
- TGI (HCT-116 colon): 24.5 µM
- TGI (NCI-H522 lung): 3.74 µM
